This is an account of results in BindingDB's records for patent US20260028321 (Chong Kun Dang Pharmaceutical, 2026).

The target of one assay is Histone deacetylase 1 (Homo sapiens, UniProt Q13547). Kind of assay: Inhibition of HDAC Enzyme Activity (In Vitro). As for the experimental part:
(§1) In the HDAC1 assay, the test substance was treated at concentrations of 100, 1000, and 10000 nM, and in the HDAC6 assay, the test substance was treated at concentrations of 0.1, 1, 10, 100, and 1000 nM.

The target in a further assay is T1, Histone deacetylase 6 (Homo sapiens, UniProt Q9UBN7).
T1 sequence (Q9UBN7 whole entry): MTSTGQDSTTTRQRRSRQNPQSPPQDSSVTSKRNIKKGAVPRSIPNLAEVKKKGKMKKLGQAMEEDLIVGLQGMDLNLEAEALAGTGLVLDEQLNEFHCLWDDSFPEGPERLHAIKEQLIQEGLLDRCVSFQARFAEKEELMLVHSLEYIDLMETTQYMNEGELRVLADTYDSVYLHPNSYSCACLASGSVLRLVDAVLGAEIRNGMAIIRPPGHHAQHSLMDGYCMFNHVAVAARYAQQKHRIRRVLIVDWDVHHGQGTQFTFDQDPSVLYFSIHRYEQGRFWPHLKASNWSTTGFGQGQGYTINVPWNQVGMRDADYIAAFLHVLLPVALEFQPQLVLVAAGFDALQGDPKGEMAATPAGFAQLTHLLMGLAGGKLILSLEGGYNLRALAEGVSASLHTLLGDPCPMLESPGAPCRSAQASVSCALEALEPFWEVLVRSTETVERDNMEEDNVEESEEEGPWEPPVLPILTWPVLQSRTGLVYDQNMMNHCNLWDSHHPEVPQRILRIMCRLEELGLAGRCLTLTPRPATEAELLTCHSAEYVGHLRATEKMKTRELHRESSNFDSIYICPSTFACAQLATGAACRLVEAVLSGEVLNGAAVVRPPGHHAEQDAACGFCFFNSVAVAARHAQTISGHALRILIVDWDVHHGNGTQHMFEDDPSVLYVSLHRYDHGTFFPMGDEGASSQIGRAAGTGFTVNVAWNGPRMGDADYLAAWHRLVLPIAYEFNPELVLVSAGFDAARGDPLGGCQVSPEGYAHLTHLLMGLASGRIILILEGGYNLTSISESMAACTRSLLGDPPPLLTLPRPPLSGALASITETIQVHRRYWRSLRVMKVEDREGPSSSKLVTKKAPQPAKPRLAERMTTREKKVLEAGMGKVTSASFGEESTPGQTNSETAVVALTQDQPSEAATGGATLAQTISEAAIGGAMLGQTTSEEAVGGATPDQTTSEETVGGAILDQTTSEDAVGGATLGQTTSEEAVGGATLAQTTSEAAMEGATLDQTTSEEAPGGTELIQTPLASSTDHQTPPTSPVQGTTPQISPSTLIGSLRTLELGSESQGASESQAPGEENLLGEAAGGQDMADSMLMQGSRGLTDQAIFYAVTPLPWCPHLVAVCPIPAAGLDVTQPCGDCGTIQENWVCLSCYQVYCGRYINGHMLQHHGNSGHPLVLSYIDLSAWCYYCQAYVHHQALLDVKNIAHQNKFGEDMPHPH
In words: Inhibition of HDAC Enzyme Activity (In Vitro). As for the experimental part:
as §1

SMILES strings stand for the structures. Where only a bound is given, the exact number is not on record here.

Histone deacetylase 1, sequence (Q13547 whole entry): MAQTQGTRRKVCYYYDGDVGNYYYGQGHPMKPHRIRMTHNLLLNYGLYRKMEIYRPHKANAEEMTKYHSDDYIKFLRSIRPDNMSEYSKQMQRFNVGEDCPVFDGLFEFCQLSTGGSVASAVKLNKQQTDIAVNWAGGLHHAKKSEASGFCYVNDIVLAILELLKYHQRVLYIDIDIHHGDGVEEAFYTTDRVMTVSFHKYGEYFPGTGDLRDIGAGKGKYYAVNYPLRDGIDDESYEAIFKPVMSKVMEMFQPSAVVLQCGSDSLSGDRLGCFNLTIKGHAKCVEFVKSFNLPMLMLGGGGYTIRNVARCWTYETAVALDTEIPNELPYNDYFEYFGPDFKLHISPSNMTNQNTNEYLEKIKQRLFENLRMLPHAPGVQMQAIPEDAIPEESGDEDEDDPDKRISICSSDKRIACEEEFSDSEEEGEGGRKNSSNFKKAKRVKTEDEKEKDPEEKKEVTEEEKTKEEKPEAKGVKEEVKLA

As a reminder, the IC50 is the concentration at which inhibition is half-maximal. For the compound `CN1CCN(c2c(N(Cc3ccc(-c4nnc(C(F)F)o4)cc3F)c3cc(F)cc(-c4ccncc4)c3)c(=O)c2=O)CC1` [US20260028321, Compound 9], the IC50 against Histone deacetylase 1 is > 10000 nM; against Histone deacetylase 6 it was 54 nM.
